Results reported in patent US20140045823A1 (Neurocrine Biosciences, Inc., priority 2012, published 2014).

Target: T1, human GPR119 (Homo sapiens, UniProt Q8TDV5)
T1 construct: expression vector for human GPR119 cDNA (Acc. No. NP_848566); expressed in transfected cells; Min-6/hGPR119
T1 sequence (Q8TDV5 1-335): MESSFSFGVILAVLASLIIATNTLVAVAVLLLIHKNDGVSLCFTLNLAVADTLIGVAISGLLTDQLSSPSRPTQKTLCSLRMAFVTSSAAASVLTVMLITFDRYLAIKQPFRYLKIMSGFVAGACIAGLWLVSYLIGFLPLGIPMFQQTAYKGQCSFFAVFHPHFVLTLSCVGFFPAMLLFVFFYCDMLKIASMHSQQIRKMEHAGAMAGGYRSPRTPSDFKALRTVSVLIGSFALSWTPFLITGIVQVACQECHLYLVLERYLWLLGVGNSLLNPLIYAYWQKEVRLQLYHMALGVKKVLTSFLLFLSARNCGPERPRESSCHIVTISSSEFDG
Test: AlphaScreen cAMP assay in MIN6 cells stably transfected with human GPR119
Assay type: cell-based
Settings: Min-6/hGPR119 cells, 45 min at room temperature
In short: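 MIN6 cells stably expressing human GPR119, seeded 10000/well and grown 24 h, were exposed to compound in pH 7.4 buffer with 0.5 mM IBMX, 0.1% BSA and 1% DMSO for 45 min at room temperature. Intracellular cAMP then measured by AlphaScreen.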

SMILES | EC50 [nM]
CN(Cc1cccnc1)C(=O)c1ccc(-c2ncc(C(=O)N(C3CC3)C3CCN(C(=O)OC(C)(C)C)CC3)cn2)cc1 [Example 197, 4-(Cyclopropyl-{2-[4-(methyl-pyridin-3-ylmethyl-carbamoyl)-phenyl]-pyrimidine-5-carbonyl}-amino)-piperidine-1-carboxylic acid tert-butyl ester] | 169
COCC(C)NC(=O)Cc1ccc(-c2ncc(C(=O)N(C3CC3)C3CCN(C(=O)OC(C)(C)C)CC3)cn2)cc1 (stereo not drawn) [Example 198, 4-[Cyclopropyl-(2-{4-[(2-methoxy-1-methyl-ethylcarbamoyl)-methyl]-phenyl}-pyrimidine-5-carbonyl)-amino]-piperidine-1-carboxylic acid tert-butyl ester] | 715
Cc1cnc(CNC(=O)Cc2ccc(-c3ncc(C(=O)N(C4CC4)C4CCN(C(=O)OC(C)(C)C)CC4)cn3)cc2)s1 [Example 199, 4-{Cyclopropyl-[2-(4-{[(5-methyl-thiazol-2-ylmethyl)-carbamoyl]-methyl}-phenyl)-pyrimidine-5-carbonyl]-amino}-piperidine-1-carboxylic acid tert-buyl ester] | 395
CN(C)C(=O)CNC(=O)c1ccc(-c2ncc(C(=O)N(C3CC3)C3CCN(C(=O)OC(C)(C)C)CC3)cn2)cc1 [Example 200, 4-(Cyclopropyl-{2-[4-(dimethylcarbamoylmethyl-carbamoyl)-phenyl]-pyrimidine-5-carbonyl}-amino)-piperidine-1-carboxylic acid tert-butyl ester] | 449
Cc1nc(CNC(=O)c2ccc(-c3ncc(C(=O)N(C4CC4)C4CCN(C(=O)OC(C)(C)C)CC4)cn3)cc2)cs1 [Example 201, 4-[Cyclopropyl-(2-{4-[(2-methyl-thiazol-4-ylmethyl)-carbamoyl]-phenyl}-pyrimidine-5-carbonyl)-amino]-piperidine-1-carboxylic acid tert-butyl ester] | 180
CN(CC1CCOC1)C(=O)c1ccc(-c2ncc(C(=O)N(C3CC3)C3CCN(C(=O)OC(C)(C)C)CC3)cn2)cc1 (stereo not drawn) [Example 202, 4-[Cyclopropyl-(2-{4-[methyl-(tetrahydro-furan-3-ylmethyl)-carbamoyl]-phenyl}-pyrimidine-5-carbonyl)-amino]-piperidine-1-carboxylic acid tert-butyl ester] | 171
COC[C@H]1CCCN1C(=O)c1ccc(-c2ncc(C(=O)N(C3CC3)C3CCN(C(=O)OC(C)(C)C)CC3)cn2)cc1 [Example 203, 4-(Cyclopropyl-{2-[4-(2-methoxymethyl-pyrrolidine-1-carbonyl)-phenyl]-pyrimidine-5-carbonyl}-amino)-piperidine-1-carboxylic acid tert-butyl ester] | 295
COC[C@@H]1CCCN1C(=O)c1ccc(-c2ncc(C(=O)N(C3CC3)C3CCN(C(=O)OC(C)(C)C)CC3)cn2)cc1 [Example 204, 4-(Cyclopropyl-{2-[4-(2-methoxymethyl-pyrrolidine-1-carbonyl)-phenyl]-pyrimidine-5-carbonyl}-amino)-piperidine-1-carboxylic acid tert-butyl ester] | 302
CN(C(=O)c1ccc(-c2ncc(C(=O)N(C3CC3)C3CCN(C(=O)OC(C)(C)C)CC3)cn2)cc1)C1CCOCC1 [Example 205, 4-[Cyclopropyl-(2-{4-[methyl-(tetrahydro-pyran-4-yl)-carbamoyl]-phenyl}-pyrimidine-5-carbonyl)-amino]-piperidine-1-carboxylic acid tert-butyl ester] | 347
CN(CC1(C)COC1)C(=O)c1ccc(-c2ncc(C(=O)N(C3CC3)C3CCN(C(=O)OC(C)(C)C)CC3)cn2)cc1 [Example 206, 4-[Cyclopropyl-(2-{4-[methyl-(3-methyl-oxetan-3-ylmethyl)-carbamoyl]-phenyl}-pyrimidine-5-carbonyl)-amino]-piperidine-1-carboxylic acid tert-butyl ester] | 312
CC(C)(C)OC(=O)N1CCC(N(C(=O)c2cnc(-c3ccc(C(=O)NCCn4ccc(C5CC5)n4)cc3)nc2)C2CC2)CC1 [Example 207, 4-[Cyclopropyl-(2-{4-[2-(3-cyclopropyl-pyrazol-1-yl)-ethylcarbamoyl]-phenyl}-pyrimidine-5-carbonyl)-amino]-piperidine-1-carboxylic acid tert-butyl ester] | 369
CC(C)(C)OC(=O)N1CCC(N(C(=O)c2cnc(-c3ccc(C(=O)Nc4ccn[nH]4)cc3)nc2)C2CC2)CC1 [Example 208, 4-(Cyclopropyl-{2-[4-(2H-pyrazol-3-ylcarbamoyl)-phenyl]-pyrimidine-5-carbonyl}-amino)-piperidine-1-carboxylic acid tert-butyl ester] | 181
CN(Cc1ccncc1)C(=O)Cc1ccc(-c2ncc(C(=O)N(C3CC3)C3CCN(C(=O)OC(C)(C)C)CC3)cn2)cc1 [Example 209, 4-[Cyclopropyl-(2-{4-[(methyl-pyridin-4-ylmethyl-carbamoyl)-methyl]-phenyl}-pyrimidine-5-carbonyl)-amino]-piperidine-1-carboxylic acid tert-butyl ester] | 312
CC(O)c1cccc(NC(=O)Cc2ccc(-c3ncc(C(=O)N(C4CC4)C4CCN(C(=O)OC(C)(C)C)CC4)cn3)cc2)c1 (stereo not drawn) [Example 210, 4-{Cyclopropyl-[2-(4-{[3-(1-hydroxy-ethyl)-phenylcarbamoyl]-methyl}-phenyl)-pyrimidine-5-carbonyl]-amino}-piperidine-1-carboxylic acid tert-butyl ester] | 593
CC(C)(C)OC(=O)N1CCC(N(C(=O)c2cnc(-c3ccc(CC(=O)N4CCC[C@@H]4C#N)cc3)nc2)C2CC2)CC1 [Example 211, 4-[(2-{4-[2-(2-Cyano-pyrrolidin-1-yl)-2-oxo-ethyl]-phenyl}-pyrimidine-5-carbonyl)-cyclopropyl-amino]-piperidine-1-carboxylic acid tert-butyl ester] | 561
COC[C@@H]1CCCN1C(=O)Cc1ccc(-c2ncc(C(=O)N(C3CC3)C3CCN(C(=O)OC(C)(C)C)CC3)cn2)cc1 [Example 212, 4-[Cyclopropyl-(2-{4-[2-(2-methoxymethyl-pyrrolidin-1-yl)-2-oxo-ethyl]-phenyl}-pyrimidine-5-carbonyl)-amino]-piperidine-1-carboxylic acid tert-butyl ester] | 350
CC(C)(C)OC(=O)N1CCC(N(C(=O)c2cnc(-c3ccc(CC(=O)NC4CCOCC4)cc3)nc2)C2CC2)CC1 [Example 213, 4-[Cyclopropyl-(2-{4-[(tetrahydro-pyran-4-ylcarbamoyl)-methyl]-phenyl}-pyrimidine-5-carbonyl)-amino]-piperidine-1-carboxylic acid tert-butyl ester] | 521
CC(C)(C)OC(=O)N1CCC(N(C(=O)c2cnc(-c3ccc(CC(=O)N4CCC[C@H]4C#N)cc3)nc2)C2CC2)CC1 [Example 214, 4-[(2-{4-[2-(2-Cyano-pyrrolidin-1-yl)-2-oxo-ethyl]-phenyl}-pyrimidine-5-carbonyl)-cyclopropyl-amino]-piperidine-1-carboxylic acid tert-butyl ester] | 418
CC(C)(C)OC(=O)N1CCC(N(C(=O)c2cnc(-c3ccc(CC(=O)NCc4ccccn4)cc3)nc2)C2CC2)CC1 [Example 215, 4-{Cyclopropyl-[2-(4-{[(pyridin-2-ylmethyl)-carbamoyl]-methyl}-phenyl)-pyrimidine-5-carbonyl]-amino}-piperidine-1-carboxylic acid tert-butyl ester] | 393
COC1CN(C(=O)Cc2ccc(-c3ncc(C(=O)N(C4CC4)C4CCN(C(=O)OC(C)(C)C)CC4)cn3)cc2)C1 [Example 216, 4-[Cyclopropyl-(2-{4-[2-(3-methoxy-azetidin-1-yl)-2-oxo-ethyl]-phenyl}-pyrimidine-5-carbonyl)-amino]-piperidine-1-carboxylic acid tert-butyl ester] | 424
CC(C)(C)OC(=O)N1CCC(N(C(=O)c2cnc(-c3ccc(CC(=O)Nc4cccc(CO)c4)cc3)nc2)C2CC2)CC1 [Example 217, 4-[Cyclopropyl-(2-{4-[(3-hydroxymethyl-phenylcarbamoyl)-methyl]-phenyl}-pyrimidine-5-carbonyl)-amino]-piperidine-1-carboxylic acid tert-butyl ester] | 550
CN(CC#N)C(=O)Cc1ccc(-c2ncc(C(=O)N(C3CC3)C3CCN(C(=O)OC(C)(C)C)CC3)cn2)cc1 [Example 218, 4-[(2-{4-[(Cyanomethyl-methyl-carbamoyl)-methyl]-phenyl}-pyrimidine-5-carbonyl)-cyclopropyl-amino]-piperidine-1-carboxylic acid tert-butyl ester] | 216
CC(C)(C)OC(=O)N1CCC(N(C(=O)c2cnc(-c3ccc(CC(=O)NCC4CCCCO4)cc3)nc2)C2CC2)CC1 (stereo not drawn) [Example 219, 4-{Cyclopropyl-[2-(4-{[(tetrahydro-pyran-2-ylmethyl)-carbamoyl]-methyl}-phenyl)-pyrimidine-5-carbonyl]-amino}-piperidine-1-carboxylic acid tert-butyl ester] | 375
CN(CCOCC1CC1)C(=O)c1ccc(-c2ncc(C(=O)N(C3CC3)C3CCN(C(=O)OC(C)(C)C)CC3)cn2)cc1 [Example 220, 4-[Cyclopropyl-(2-{4-[(2-cyclopropylmethoxy-ethyl)-methyl-carbamoyl]-phenyl}-pyrimidine-5-carbonyl)-amino]-piperidine-1-carboxylic acid tert-butyl ester] | 183
